# The source made the active and inactive calls.
# Legend:
# [1] = cytotoxicity in HPDE-C7 cells, cell-based, fluorescence, HTS (AID 430); type: functional; conditions: Homo sapiens
# [2] = cytotoxicity in KRAS-transformed pancreatic duct cells, primary screen, cell-based, fluorescence, HTS (AID 431); type: functional; conditions: Homo sapiens;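 further: cell line used: HPDE-C7K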
# Mucolipin-3 = molecular target: T1, Mucolipin-3 (Homo sapiens, UniProt Q8TDD5); test: Dose response cell-based high-throughput screening assay for agonists of the transient receptor potential channel ML3 (TRPML3). [Related pubchem assays: 1526, 1424, 1448 ]; type: functional
# T1 sequence (Q8TDD5 whole entry): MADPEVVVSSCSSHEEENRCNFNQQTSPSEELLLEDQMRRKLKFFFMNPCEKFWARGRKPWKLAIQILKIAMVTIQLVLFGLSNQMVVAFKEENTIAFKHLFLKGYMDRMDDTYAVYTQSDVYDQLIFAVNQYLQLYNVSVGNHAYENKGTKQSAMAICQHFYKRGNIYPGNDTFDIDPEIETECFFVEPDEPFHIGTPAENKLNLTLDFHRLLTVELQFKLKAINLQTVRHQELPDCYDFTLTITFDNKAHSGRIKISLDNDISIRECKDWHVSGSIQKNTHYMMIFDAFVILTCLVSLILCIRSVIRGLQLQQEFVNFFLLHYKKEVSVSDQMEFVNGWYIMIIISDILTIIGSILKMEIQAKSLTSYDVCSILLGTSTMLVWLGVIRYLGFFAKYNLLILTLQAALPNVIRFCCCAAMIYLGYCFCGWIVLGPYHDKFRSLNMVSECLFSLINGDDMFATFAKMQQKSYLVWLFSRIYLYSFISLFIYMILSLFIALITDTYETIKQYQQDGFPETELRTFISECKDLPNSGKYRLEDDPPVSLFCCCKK
# Ion channel NompC = Ion channel NompC (Danio rerio, UniProt Q7T1G6); test: Fluorescence counterscreen assay for TRPML3 agonists: dose response cell-based high-throughput screening assay to identify agonists of the transient receptor potential channel N1 (TRPN1). [Related pubchem assays: 1526, 1424, 1448 ]; type: functional
# NADPH oxidase 1 = molecular target: T2, NADPH oxidase 1 (Homo sapiens, UniProt Q9Y5S8); type: functional, cell-based;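 further: Cell-based assay with luminescence read-out, IC50 derived from inhibitor dose-response curves; intracellular ROS from endogenous NOX1 in intact HT29 colon cancer cells; potency of inhibitors that lower the ROS luminescence signal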
# T2 sequence (Q9Y5S8 whole entry): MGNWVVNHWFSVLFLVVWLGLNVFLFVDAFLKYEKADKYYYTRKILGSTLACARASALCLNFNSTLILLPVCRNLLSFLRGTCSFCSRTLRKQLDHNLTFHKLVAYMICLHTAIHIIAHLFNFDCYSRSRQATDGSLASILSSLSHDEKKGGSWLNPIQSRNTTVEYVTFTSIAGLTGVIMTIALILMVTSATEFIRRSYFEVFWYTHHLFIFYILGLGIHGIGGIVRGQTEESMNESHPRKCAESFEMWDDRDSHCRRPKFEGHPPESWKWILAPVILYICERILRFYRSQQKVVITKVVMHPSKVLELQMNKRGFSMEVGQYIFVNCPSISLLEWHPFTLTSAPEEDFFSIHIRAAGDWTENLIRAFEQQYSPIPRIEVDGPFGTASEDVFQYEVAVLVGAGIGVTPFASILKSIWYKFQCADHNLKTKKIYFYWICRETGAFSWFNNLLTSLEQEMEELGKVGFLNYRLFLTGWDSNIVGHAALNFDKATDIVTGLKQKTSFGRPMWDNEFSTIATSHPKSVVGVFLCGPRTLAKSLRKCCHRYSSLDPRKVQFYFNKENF
# [3] = P. falciparum late gametocyte killing, dose response, luminescence (AID 1117278); type: functional, cell-based;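 further: gametocytes exposed to compound for 24 hours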
# [4] = Jurkat T cell cytotoxicity, dose response, cytotoxicity control for P. falciparum gametocyte viability project, luminescence (AID 1117277); type: functional, cell-based;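 further: potency reflects loss of cellular ATP meaning fewer viable cells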
# Prothrombin = Prothrombin (Homo sapiens, UniProt P00734); test: Thrombin 1536 HTS Dose Response Confirmation. [Related pubchem assays: 1046 (Thrombin 1536 HTS; hits were confirmed in this assay)]; type: functional
# Caspase-6 = molecular target: T3, Caspase-6 (Homo sapiens, UniProt P55212); test: human caspase-6 inhibitors, dose response, biochemical, VEID-R110 fluorescence, cherry-pick (AID 720632)
# T3 sequence (P55212 whole entry): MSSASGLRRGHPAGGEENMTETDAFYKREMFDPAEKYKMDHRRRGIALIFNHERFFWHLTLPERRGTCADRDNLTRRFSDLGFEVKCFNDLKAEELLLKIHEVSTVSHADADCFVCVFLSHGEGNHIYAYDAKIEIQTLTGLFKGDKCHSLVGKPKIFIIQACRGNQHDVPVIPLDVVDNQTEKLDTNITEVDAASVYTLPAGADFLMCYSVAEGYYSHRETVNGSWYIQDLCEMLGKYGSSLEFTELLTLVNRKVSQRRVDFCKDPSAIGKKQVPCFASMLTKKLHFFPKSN
# [5] = molecular target: T4, Histone-lysine N-methyltransferase NSD2 (Homo sapiens, UniProt O96028); type: biochemical
# T4 sequence (O96028 whole entry): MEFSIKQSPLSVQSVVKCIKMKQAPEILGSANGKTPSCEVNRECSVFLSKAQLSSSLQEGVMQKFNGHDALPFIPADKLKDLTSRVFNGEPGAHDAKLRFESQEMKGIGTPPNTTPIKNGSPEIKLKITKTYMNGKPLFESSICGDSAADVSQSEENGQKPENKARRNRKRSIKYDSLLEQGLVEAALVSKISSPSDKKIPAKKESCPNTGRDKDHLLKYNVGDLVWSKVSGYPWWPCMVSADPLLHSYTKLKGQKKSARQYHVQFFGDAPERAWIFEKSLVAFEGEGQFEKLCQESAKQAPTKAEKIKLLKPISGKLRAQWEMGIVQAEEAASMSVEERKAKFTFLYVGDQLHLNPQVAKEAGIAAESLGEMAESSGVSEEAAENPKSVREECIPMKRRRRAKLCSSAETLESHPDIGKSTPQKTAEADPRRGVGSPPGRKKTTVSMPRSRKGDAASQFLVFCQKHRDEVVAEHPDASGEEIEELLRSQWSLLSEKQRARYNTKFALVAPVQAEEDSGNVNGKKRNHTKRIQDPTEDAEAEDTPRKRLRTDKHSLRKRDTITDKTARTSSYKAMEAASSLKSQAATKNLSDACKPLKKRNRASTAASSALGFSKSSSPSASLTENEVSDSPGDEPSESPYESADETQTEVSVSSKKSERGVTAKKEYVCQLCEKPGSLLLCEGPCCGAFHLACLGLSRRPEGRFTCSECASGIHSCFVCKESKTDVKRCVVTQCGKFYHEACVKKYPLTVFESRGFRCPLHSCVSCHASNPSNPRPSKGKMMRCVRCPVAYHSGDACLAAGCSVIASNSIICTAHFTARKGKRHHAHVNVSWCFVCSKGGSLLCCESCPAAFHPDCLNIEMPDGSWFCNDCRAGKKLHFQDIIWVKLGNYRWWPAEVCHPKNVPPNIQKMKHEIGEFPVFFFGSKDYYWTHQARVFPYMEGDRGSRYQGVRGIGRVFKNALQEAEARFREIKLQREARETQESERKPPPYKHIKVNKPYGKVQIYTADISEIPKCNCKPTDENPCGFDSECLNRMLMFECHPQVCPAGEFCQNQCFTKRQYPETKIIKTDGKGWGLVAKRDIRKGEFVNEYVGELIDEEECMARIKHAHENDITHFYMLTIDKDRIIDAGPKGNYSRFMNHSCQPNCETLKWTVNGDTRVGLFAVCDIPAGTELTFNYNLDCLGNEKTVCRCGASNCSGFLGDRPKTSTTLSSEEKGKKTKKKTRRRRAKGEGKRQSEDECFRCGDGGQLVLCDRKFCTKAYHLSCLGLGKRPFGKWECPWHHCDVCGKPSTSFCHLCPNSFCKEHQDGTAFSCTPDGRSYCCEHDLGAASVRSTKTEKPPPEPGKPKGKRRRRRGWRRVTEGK
# [6] = molecular target: T5, Tyrosyl-DNA phosphodiesterase 2 (Homo sapiens, UniProt O95551); test: human TDP2 enzyme inhibitors, dose response, biochemical, epi absorbance, IC50 (AID 743297)
# T5 sequence (O95551 whole entry): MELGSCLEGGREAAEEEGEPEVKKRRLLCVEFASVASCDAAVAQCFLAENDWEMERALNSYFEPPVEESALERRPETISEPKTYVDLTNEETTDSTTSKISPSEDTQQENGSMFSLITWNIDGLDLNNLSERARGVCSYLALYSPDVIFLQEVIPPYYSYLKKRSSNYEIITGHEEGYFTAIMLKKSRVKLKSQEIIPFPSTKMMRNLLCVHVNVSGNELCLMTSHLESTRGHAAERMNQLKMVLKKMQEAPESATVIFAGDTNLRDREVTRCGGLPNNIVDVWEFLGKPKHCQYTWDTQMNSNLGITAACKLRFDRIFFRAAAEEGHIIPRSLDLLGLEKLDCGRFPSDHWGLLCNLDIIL
# Genome polyprotein = molecular target: T6, Genome polyprotein (Hepatitis C virus, UniProt Q2Q167); test: HCV core protein dimerization inhibitors, dose response, biochemical, TR-FRET (AID 2159); design: species or system Hepacivirus hominis;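 further: blocks dimerization of HCV core protein measured by TR-FRET between tagged core106 pairs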
# T6 sequence (Q2Q167 whole entry): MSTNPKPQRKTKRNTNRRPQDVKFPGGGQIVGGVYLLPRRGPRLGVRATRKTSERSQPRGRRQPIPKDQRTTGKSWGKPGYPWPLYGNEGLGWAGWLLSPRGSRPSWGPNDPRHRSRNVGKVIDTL
# [7] = molecular target: Heat shock protein HSP 90-alpha (Homo sapiens, UniProt P07900); type: functional, organism-based
# INS1 = test: beta cell apoptosis inhibitors, cytokine rescue, dose response, luminescence, retest (AID 449756); type: functional, cell-based; conditions: Rattus norvegicus;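 further: cell death triggered by IL-1 beta plus TNF-alpha plus IFN-gamma mixture; protective hits raise ATP signal compared with cytokine alone wells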
# [8] = HeLa 2N DNA content increase, dose response, cell-based, IC50 (AID 1117349); type: functional
# [9] = Concentration-dependent survival of SW480 colon cancer line, luminescence detection with CellTiter-Glo, half-maximal inhibitory concentration (AID 1117338); type: functional
# [10] = RKO cell viability reduction, dose response, CellTiter-Glo luminescence (AID 1117322); type: functional
# [11] = cytotoxicity toward HCT116 cells – cell-based, CellTiter-Glo luminescence, IC50, dose response (AID 1117332); type: functional; conditions: HCT-116
# [12] = SNU-C1 cell viability reduction, dose response, CellTiter-Glo luminescence (AID 1117323); type: functional, cell-based
# [13] = cytotoxicity toward Colo320 cells – cell-based, CellTiter-Glo luminescence, IC50, dose response (AID 1117334); type: functional; conditions: COLO 320
# [14] = HeLa 4N DNA content increase, dose response, cell-based, IC50 (AID 1117351); type: functional
# [15] = CellTiter-Glo luminescent dose response of DLD-1 viability loss (AID 1117352); type: functional
# [16] = HCT116 cell viability decrease, GSK3B pretreatment – CellTiter-Glo, IC50, dose response (AID 1117339); type: functional; conditions: HCT-116
# Cytochrome P450 1A2 = molecular target: T7, Cytochrome P450 1A2 (Homo sapiens, UniProt P05177);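 further: PubChem cytochrome P450 panel assay, CYP1A2 panel member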
# T7 sequence (P05177 whole entry): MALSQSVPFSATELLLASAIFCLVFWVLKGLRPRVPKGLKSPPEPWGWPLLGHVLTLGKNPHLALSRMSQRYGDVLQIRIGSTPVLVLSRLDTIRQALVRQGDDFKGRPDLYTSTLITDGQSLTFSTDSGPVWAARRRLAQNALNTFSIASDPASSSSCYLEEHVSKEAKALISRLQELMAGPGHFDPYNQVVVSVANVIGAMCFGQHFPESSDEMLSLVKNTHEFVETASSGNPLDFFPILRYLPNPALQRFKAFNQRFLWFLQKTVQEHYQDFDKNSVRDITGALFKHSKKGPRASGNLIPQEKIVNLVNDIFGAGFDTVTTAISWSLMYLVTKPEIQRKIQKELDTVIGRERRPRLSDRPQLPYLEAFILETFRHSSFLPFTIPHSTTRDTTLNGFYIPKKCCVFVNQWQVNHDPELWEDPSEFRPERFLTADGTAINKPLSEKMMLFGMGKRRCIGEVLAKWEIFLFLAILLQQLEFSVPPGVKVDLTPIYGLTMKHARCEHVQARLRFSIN
# Chain of Ion channel NompC (Q7T1G6 whole entry): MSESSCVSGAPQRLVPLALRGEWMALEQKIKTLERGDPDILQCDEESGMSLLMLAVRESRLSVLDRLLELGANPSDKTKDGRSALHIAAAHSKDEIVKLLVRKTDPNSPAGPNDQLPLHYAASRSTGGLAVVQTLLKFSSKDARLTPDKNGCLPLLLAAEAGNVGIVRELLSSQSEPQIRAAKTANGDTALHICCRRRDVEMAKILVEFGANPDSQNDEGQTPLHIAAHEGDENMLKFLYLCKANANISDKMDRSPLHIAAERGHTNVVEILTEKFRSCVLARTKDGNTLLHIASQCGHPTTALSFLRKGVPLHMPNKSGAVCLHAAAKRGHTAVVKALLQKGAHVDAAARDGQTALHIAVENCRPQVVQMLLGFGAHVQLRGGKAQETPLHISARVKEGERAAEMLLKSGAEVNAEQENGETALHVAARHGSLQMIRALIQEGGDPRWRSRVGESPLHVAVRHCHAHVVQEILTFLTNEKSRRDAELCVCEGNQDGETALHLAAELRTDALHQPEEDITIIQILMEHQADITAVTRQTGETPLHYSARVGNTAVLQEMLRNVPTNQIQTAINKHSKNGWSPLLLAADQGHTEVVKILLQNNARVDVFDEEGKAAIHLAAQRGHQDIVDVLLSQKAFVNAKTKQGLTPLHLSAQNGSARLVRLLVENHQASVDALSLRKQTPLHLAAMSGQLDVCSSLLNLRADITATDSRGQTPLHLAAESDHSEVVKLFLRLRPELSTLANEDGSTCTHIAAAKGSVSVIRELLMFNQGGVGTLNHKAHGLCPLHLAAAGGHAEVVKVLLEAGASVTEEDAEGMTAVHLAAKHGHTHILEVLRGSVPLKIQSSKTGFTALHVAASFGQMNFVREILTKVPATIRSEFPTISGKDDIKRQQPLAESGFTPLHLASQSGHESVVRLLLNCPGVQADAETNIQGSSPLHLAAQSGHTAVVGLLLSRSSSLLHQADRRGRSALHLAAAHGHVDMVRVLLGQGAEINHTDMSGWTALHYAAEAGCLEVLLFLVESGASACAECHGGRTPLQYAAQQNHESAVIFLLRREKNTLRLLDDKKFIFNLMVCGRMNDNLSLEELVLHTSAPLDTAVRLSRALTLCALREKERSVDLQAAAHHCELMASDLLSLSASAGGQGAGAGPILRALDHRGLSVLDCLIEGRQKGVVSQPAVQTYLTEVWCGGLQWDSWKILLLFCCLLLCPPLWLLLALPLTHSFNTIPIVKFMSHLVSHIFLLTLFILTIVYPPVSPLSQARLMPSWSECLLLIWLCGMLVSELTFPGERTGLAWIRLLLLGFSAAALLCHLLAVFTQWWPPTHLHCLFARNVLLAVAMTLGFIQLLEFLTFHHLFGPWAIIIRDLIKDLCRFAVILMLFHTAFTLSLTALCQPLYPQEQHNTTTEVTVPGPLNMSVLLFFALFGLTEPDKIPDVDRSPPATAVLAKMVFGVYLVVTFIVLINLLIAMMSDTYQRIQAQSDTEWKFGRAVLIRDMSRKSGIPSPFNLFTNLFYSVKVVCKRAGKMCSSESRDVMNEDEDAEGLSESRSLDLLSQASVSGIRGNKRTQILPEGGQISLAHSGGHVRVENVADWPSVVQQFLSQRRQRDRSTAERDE
structure (smiles),measurement,setting,value
CCCCOc1cccc(C(=O)Nc2ccc(N3CCN(CC)CC3)cc2)c1,EC50,[1],> 20 µM (not active)
same,EC50,[2],> 20 µM (not active)
COc1ccc(S(=O)(=O)N(CC(=O)N2CCOCC2)c2cc(Cl)ccc2OC)cc1OC,EC50,Mucolipin-3,4.75 µM (active)
same,EC50,Ion channel NompC,> 29.9 µM (not active)
CC(=O)Nc1ccc(-c2nc(-c3ccccc3)c(-c3ccccc3)[nH]2)cc1,IC50,NADPH oxidase 1,> 17 µM (not active)
Cc1cc(C)c(C2=NOC3C4CCC(C4)C23)c(C)c1 (configuration not stated),EC50,Mucolipin-3,1.77 µM (active)
same,EC50,Ion channel NompC,> 29.9 µM (not active)
CN(C1CCS(=O)(=O)C1)S(=O)(=O)c1ccccc1 (configuration not stated),IC50,[3],> 109 µM (inactive)
same,IC50,[4],> 83.3 µM (inactive)
O=C(Oc1ccc(Cl)cc1)c1sc2ccccc2c1Cl,IC50,NADPH oxidase 1,> 17 µM (not active)
O=C(CC(Nc1ccc(F)cc1)C(=O)OCC(=O)c1cccs1)c1ccccc1 (configuration not stated),IC50,Prothrombin,2.82 µM (active)
O=C(c1ccco1)N1CCN(C(=O)C2c3ccccc3Oc3ccccc32)CC1,IC50,[3],> 109 µM (inactive)
same,IC50,[4],64.4 µM (inactive)
Cc1ccc(CN2CCN(Cc3ccc(-n4cccn4)cc3)CC2CCO)cc1 (configuration not stated),IC50,[3],> 109 µM (inactive)
same,IC50,[4],> 83.4 µM (inactive)
COc1cc(N)c2ncccc2c1Br,AC50,Caspase-6,10 µM (active)
same,AC50,[5],13.1 µM (active)
same,IC50,[6],> 128 µM (inactive)
COc1cccc(NC(=O)CN(C)C(=O)c2cc3c(s2)CCC3)c1,IC50,Genome polyprotein,> 49.8 µM (not active)
COc1ccc(-c2nc(-c3ccc(OC)cc3)c(-c3ccc(OC)cc3)[nH]2)cc1,IC50,NADPH oxidase 1,> 17 µM (not active)
Cc1ccccc1N1CCN(S(=O)(=O)c2ccccc2)CC1,EC50,Mucolipin-3,5.11 µM (active)
same,EC50,Ion channel NompC,> 29.9 µM (not active)
O=C(CSc1nc2ncnc-2c(O)[nH]1)NC1CCCCC1,IC50,Prothrombin,> 50 µM (not active)
Cc1cc(C2CCCCC2)n(O)c(=O)c1 [CICLOPIROX OLAMINE],AC50,[7],< 0.195 µM (active)
same,AC50,INS1,0.78 µM (active)
same,IC50,[8],> 10 µM (inactive)
same,IC50,[9],0.469 µM (active)
same,IC50,[10],0.233 µM (active)
same,IC50,[11],0.656 µM (active)
same,IC50,[12],> 20 µM (inactive)
same,IC50,[13],0.208 µM (active)
same,IC50,[14],> 10 µM (inactive)
same,IC50,[15],0.316 µM (active)
same,IC50,[16],0.39 µM (active)
same,AC50,Cytochrome P450 1A2,15.8 µM (inconclusive)
Cc1ccc2c(c1)CC1(CN2C)C(=O)OC(C)(C)OC1=O,IC50,Prothrombin,1.69 µM (active)
O=C(/C=C/c1ccc(Br)o1)OCc1nc(O)c2sccc2n1,IC50,Genome polyprotein,18.2 µM (not active)

# — ChEMBL document CHEMBL1201862, “PubChem BioAssay data set” (2004)
